The values below come from ChEMBL document CHEMBL5120822, “Inhibition of the P2X7/NLRP3 Inflammasome Signaling Pathway by Deacetylgedunin from Toona sinensis” (J Nat Prod, 2022).

The subject of data set [1] is RAW264.7. The experiment in a line: Cytotoxicity against mouse RAW264.7 cells derived macrophage assessed as reduction in cell viability upto 40 uM incubated for 24 hrs by CCK-8 assay. The data set is classed as toxicity, cell-based. As to conditions: raw264.7, 24 h. A general note: Formazan colour is commonly taken as a measure of viable cells.
The subject of data set [2] is THP-1. Description: Cytotoxicity against human THP-1 cells derived macrophage assessed as reduction in cell viability upto 40 uM incubated for 24 hrs by CCK-8 assay. In kind it is toxicity, cell-based. The following applies: thp-1, 24 h.
The test system of data set [3] is RAW264.7. The experiment in a line: Antiinflammatory activity in mouse RAW264.7 assessed as inhibition of LPS-induced NO production incubated for 1 hrs followed by LPS stimulation for 18 hrs by Griess reagent based assay. The data set is classed as functional, cell-based. A general note: The Griess reaction detects nitrite, a stable product of nitric oxide.
Data set [4] relates to THP-1. Description: Antiinflammatory activity against PMA-differentiated human THP-1 cells assessed as reduction in IL-1beta level at 20 uM incubated for 1 hrs followed by LPS stimulation for 12 hrs and ATP addition for 0.5 hrs by ELISA. In kind it is functional, cell-based. The following applies: time 13.5 hrs. Background: In an ELISA, binding on a coated surface is turned into a signal by an enzyme label.

For the next data set, the system named is J774.1. The experiment in a line: Cytotoxicity against mouse J774.1 cells derived macrophage assessed as reduction in cell viability upto 40 uM incubated for 24 hrs by CCK-8 assay. The data set is classed as toxicity, cell-based. As to conditions: j774.1, 24 h.

Activity calls are given as the source filed them. No cut-off for these calls is given here.

For orientation: IC50 means the concentration needed to halve the response being measured. As to `CC1(C)C(=O)C=C[C@]2(C)[C@H]3CC[C@@]4(C)[C@H](c5ccoc5)OC(=O)[C@H]5O[C@]54[C@]3(C)C(=O)C[C@@H]12` [DEACETOXY-7-OXOGEDUNIN], the Activity entry in the data set on RAW264.7 [1] and in the data set on THP-1 [2] was “Toxic” throughout. Moreover, the concentration for half-maximal inhibition (IC50) in the data set with RAW264.7 [3] is 9.46 µM. In addition, in the data set on THP-1 [4], the outcome was Active.
On to `CNC(=N)NCCC[C@H](N)C(=O)O` [TILARGININE], for which the IC50 with RAW264.7 [3] turned out to be 44.4 µM.
In the case of `CC(=O)O[C@@H]1C[C@H]2C(C)(C)C(=O)C=C[C@]2(C)[C@H]2CC[C@@]3(C)[C@@H](c4ccoc4)OC(=O)[C@H]4O[C@]43[C@@]21C`, the Activity entry in the data set with RAW264.7 [1], in the data set on J774.1 and with THP-1 [2] was “Toxic” throughout. Besides, in the data set on RAW264.7 [3], the IC50 stood at 8.85 µM. Also, the outcome in the data set on THP-1 [4] was Active.
